According to patent US20250388584A1, “TPK AGONIST AND METHOD FOR TREATING NEURODEGENERATIVE DISEASES USING SAME” (SHANGHAI RAISING PHARMACEUTICAL CO., LTD., priority 2022, published 2025):
Read-outs that look alike come from different tables or passages of the source.

Biological target: TPK enzyme (Homo sapiens (Human), UniProt Q9H3S4)
Experiment: TPK enzyme activity test
Format: biochemical
Settings: for Emax: calculated with the effect of DMSO on TPK enzyme activity as 100%; for EC50: promoting effect on TPK enzyme activity

Chain of TPK enzyme (Q9H3S4 whole entry): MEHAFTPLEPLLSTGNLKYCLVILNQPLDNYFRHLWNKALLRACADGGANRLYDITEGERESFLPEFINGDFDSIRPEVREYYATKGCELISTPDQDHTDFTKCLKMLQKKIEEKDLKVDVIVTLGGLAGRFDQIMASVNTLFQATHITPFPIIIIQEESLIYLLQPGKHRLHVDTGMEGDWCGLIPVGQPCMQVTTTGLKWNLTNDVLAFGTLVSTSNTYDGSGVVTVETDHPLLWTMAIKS

Compound	Emax (read-out: Emax)	EC50	Emax
O=C(CCn1cnc2c([nH]c3ccc(C(F)(F)F)cc32)c1=O)N1CCN(Cc2cccc(C(F)(F)F)c2)CC1 [Compound 53, 3-(3-oxo-3-(4-(3-(trifluoromethyl)benzyl)piperazin-1-yl)propyl)-8-(trifluoromethyl)-3,5-dihydro-4H-pyrimido[5,4-b]indol-4-one]	162%	1580 nM	–
O=C(CCn1cnc2c([nH]c3ccc(C(F)(F)F)cc32)c1=O)N1CCN(Cc2cc(F)c(F)c(F)c2)CC1 [Compound 54, 3-(3-oxo-3-(4-(3,4,5-trifluorobenzyl)piperazin-1-yl)propyl)-8-(trifluoromethyl)-3,5-dihydro-4H-pyrimido[5,4-b]indol-4-one]	170%	1680 nM	–
Cc1ccc2[nH]c3c(=O)n(CC(=O)NCCCN4CCN(Cc5ccccc5)CC4)ncc3c2c1 [Compound 55]	159%	10600 nM	–
Cc1ccc2oc3c(=O)n(CCC(=O)N4CCN(c5cccc(C(F)(F)F)c5)CC4)cnc3c2c1 [Compound 57, 8-methyl-3-(3-oxo-3-(4-(3-(trifluoromethyl)phenyl)piperazin-1-yl)propyl)benzofuro[3,2-d]pyrimidin-4(3H)-one]	159%	1190 nM	–
O=C(Cn1cnc2c(oc3ccccc32)c1=O)N1CCN(c2cccc(C(F)(F)F)c2)CC1 [Compound 58]	147%	–	–
Cc1ccc2[nH]c3c(=O)n(CCC(=O)N4CCN(c5cccc(C(F)(F)F)c5)CC4)ccc3c2c1 [Compound 59, 6-methyl-2-(3-oxo-3-(4-(3-(trifluoromethyl)phenyl)piperazin-1-yl)propyl)-2,9-dihydro-1H-pyrido[3,4-b]indol-1-one]	190%	1380 nM	–
Cc1ccc2[nH]c3c(=O)n(CC(=O)N4CCN(c5ccc(F)cc5)CC4)cnc3c2c1 [Compound 63]	148%	–	–
Cc1ccc2[nH]c3c(=O)n(CCC(=O)NCCNc4cccc(C(F)(F)F)c4)cnc3c2c1 [Compound 89, 3-(8-methyl-4-oxo-4,5-dihydro-3H-pyrimido[5,4-b]indol-3-yl)-N-(2-((3-(trifluoromethyl)phenyl)amino)ethyl)propanamide]	132%	–	–
COc1cc2[nH]c3c(=O)n(CC(=O)NCc4cccc(C(F)(F)F)c4)cnc3c2cc1OC [Compound 113]	120%	–	–
Cc1ccc2[nH]c3c(=O)n(CCC(=O)NCCNc4ccc5ccccc5c4)cnc3c2c1 [Compound 132, 3-(8-methyl-4-oxo-4,5-dihydro-3H-pyrimido[5,4-b]indol-3-yl)-N-(2-(naphthalen-2-ylamino)ethyl)propanamide]	163%	–	–
Cc1ccc2nc3c(=O)n(CCC(=O)N4CCN(c5cccc(C(F)(F)F)c5)CC4)cnc3cc2c1 [Compound 138, 8-methyl-3-(3-oxo-3-(4-(3-(trifluoromethyl)phenyl)piperazin-1-yl)propyl)pyrimido[5,4-b]quinolin-4(3H)-one]	146%	1160 nM	–
COc1ccc2c(c1)N1CCN(c3ccccc3OC)CC1C(C(=O)NCCN1CCCCC1)C2 (stereo not shown) [Compound 139]	198%	950 nM	–
COc1ccc2c(c1)N1CCN(c3ccc(C)cc3)CC1C(C(=O)Nc1ccccc1)C2 (stereo not shown) [Compound 140]	187%	–	–
O=C(N[C@@H](Cc1ccc(F)cc1)C(=O)O)OCC1c2ccccc2-c2ccccc21 [Compound 141]	204%	4070 nM	–
C[C@H](OC(C)(C)C)[C@@H](NC(=O)OCC1c2ccccc2-c2ccccc21)C(=O)O [Compound 142]	224%	9040 nM	–
O=C(CCn1cnc2c(sc3ccccc32)c1=O)N1CCC(O)(c2cccc(C(F)(F)F)c2)CC1 [Compound 147, 3-(3-(4-hydroxy-4-(3-(trifluoromethyl)phenyl)piperidin-1-yl)-3-oxopropyl)benzo[4,5]thieno[3,2-d]pyrimidin-4(3H)-one]	160%	7720 nM	–
O=C(CCn1cnc2c(oc3ccc(F)cc32)c1=O)N1CCN(c2cccc(C(F)(F)F)c2)CC1 [Compound 148, 8-fluoro-3-(3-oxo-3-(4-(3-(trifluoromethyl)phenyl)piperazin-1-yl)propyl)benzofuro[3,2-d]pyrimidin-4 (3H)-one]	151%	1990 nM	–
O=C(CCn1cnc2c(oc3ccc(F)cc32)c1=O)N1CCC(Cc2ccc(F)cc2)CC1 [Compound 150, 8-fluoro-3-(3-(4-(4-fluorobenzyl)piperidin-1-yl)-3-oxopropyl)benzofuro[3,2-d]pyrimidin-4(3H)-one]	171%	1990 nM	–
O=C(CCn1cnc2c(oc3ccc(F)cc32)c1=O)N1CCC(O)(c2cccc(C(F)(F)F)c2)CC1 [Compound 151, 8-fluoro-3-(3-(4-hydroxy-4-(3-(trifluoromethyl)phenyl)piperidin-1-yl)-3-oxopropyl)benzofuro[3,2-d]pyrimidin-4(3H)-one]	189%	5980 nM	–
O=C(CCn1cnc2c([nH]c3ccc(F)cc32)c1=O)N1CCN(c2cccc(C(F)(F)F)c2)CC1 [Compound 153, 8-fluoro-3-(3-oxo-3-(4-(3-(trifluoromethyl)phenyl)piperazin-1-yl)propyl)-3,5-dihydro-4H-pyrimido[5,4-b]indol-4-one]	–	3170 nM	130.73%

Other lines, results leading:

Emax (read-out: Emax)	EC50	Emax	Compound
172%	1210 nM	–	Cc1ccc2[nH]c3c(=O)n(CCC(=O)N4CCN(c5cccc(C(F)(F)F)c5)CC4)cnc3c2c1 [Compound 61]
138%	–	–	Cc1ccc2[nH]c3c(=O)n(CCC(=O)NCc4cc(C(F)(F)F)cc(C(F)(F)F)c4)cnc3c2c1 [Compound 66, N-(3,5-bis(trifluoromethyl)benzyl)-3-(8-methyl-4-oxo-4,5-dihydro-3H-pyrimido[5,4-b]indol-3-yl)propanamide]
187%	1200 nM	–	Cc1ccc2[nH]c3c(=O)n(CCC(=O)NCc4cccc(C(F)(F)F)c4)ccc3c2c1 [Compound 67, 3-(6-methyl-1-oxo-1,9-dihydro-2H-pyrido[3,4-b]indol-2-yl)-N-(3-(trifluoromethyl)benzyl)propanamide]
168%	–	–	Cc1ccc2[nH]c3c(=O)n(CCC(=O)NCCCc4cccc(C(F)(F)F)c4)cnc3c2c1 [Compound 69, 3-(8-methyl-4-oxo-4,5-dihydro-3H-pyrimido[5,4-b]indol-3-yl)-N-(3-(3-(trifluoromethyl)phenyl)propyl)propanamide]
142%	–	–	O=C(CCn1cnc2c([nH]c3ccc(C(F)(F)F)cc32)c1=O)NCc1cccc(C(F)(F)F)c1 [Compound 71, 3-(4-oxo-8-(trifluoromethyl)-4,5-dihydro-3H-pyrimido[5,4-b]indol-3-yl)-N-(3-(trifluoromethyl)benzyl)propanamide]
122%	–	–	Cc1ccc2[nH]c3c(=O)n(CCNC(=O)Cc4cccc(C(F)(F)F)c4)cnc3c2c1 [Compound 72, N-(2-(8-methyl-4-oxo-4,5-dihydro-3H-pyrimido[5,4-b]indol-3-yl)ethyl)-2-(3-(trifluoromethyl)phenyl)acetamide]
122%	–	–	Cc1cccc2[nH]c3c(=O)n(CCC(=O)NCc4cccc(C(F)(F)F)c4)cnc3c12 [Compound 77, 3-(9-methyl-4-oxo-4,5-dihydro-3H-pyrimido[5,4-b]indol-3-yl)-N-(3-(trifluoromethyl)benzyl)propanamide]
123%	–	–	COc1cccc(CNC(=O)CCn2cnc3c([nH]c4ccc(C)cc43)c2=O)c1 [Compound 81]
123%	–	–	Cc1ccc2[nH]c3c(=O)n(CCC(=O)NCc4cccc(O)c4)cnc3c2c1 [Compound 82, N-(3-hydroxybenzyl)-3-(8-methyl-4-oxo-4,5-dihydro-3H-pyrimido[5,4-b]indol-3-yl)propanamide]
126%	–	–	COC(=O)c1cccc(CNC(=O)CCn2cnc3c([nH]c4ccc(C)cc43)c2=O)c1 [Compound 83, methyl 3-((3-(8-methyl-4-oxo-4,5-dihydro-3H-pyrimido[5,4-b]indol-3-yl)propanamido)methyl)benzoate]
146%	–	–	Cc1ccc2oc3c(=O)n(CCC(=O)NCc4cccc(C(F)(F)F)c4)cnc3c2c1 [Compound 87, 3-(8-methyl-4-oxobenzofuro[3,2-d]pyrimidin-3(4H)-yl)-N-(3-(trifluoromethyl)benzyl)propanamide]
124%	–	–	Cc1ccc2[nH]c3c(=O)n(CCC(=O)NCc4cccc(S(N)(=O)=O)c4)cnc3c2c1 [Compound 88]
140%	3720 nM	–	Cc1ccc2[nH]c3c(=O)n(CCC(=O)N(C)CCNc4cccc(C(F)(F)F)c4)cnc3c2c1 [Compound 91, N-methyl-3-(8-methyl-4-oxo-4,5-dihydro-3H-pyrimido[5,4-b]indol-3-yl)-N-(2-((3-(trifluoromethyl)phenyl)amino)ethyl)propanamide]
160%	3560 nM	–	Cc1ccc2[nH]c3c(=O)n(CCC(=O)N(C)CCN(C)c4cccc(C(F)(F)F)c4)cnc3c2c1 [Compound 92, N-methyl-N-(2-(methyl(3-(trifluoromethyl)phenyl)amino)ethyl)-3-(8-methyl-4-oxo-4,5-dihydro-3H-pyrimido[5,4-b]indol-3-yl)propanamide]
192%	–	–	Cc1ccc2[nH]c3c(=O)n(CCC(=O)NCCN(C)c4cccc(C(F)(F)F)c4)cnc3c2c1 [Compound 93, N-(2-(methyl(3-(trifluoromethyl)phenyl)amino)ethyl)-3-(8-methyl-4-oxo-4,5-dihydro-3H-pyrimido[5,4-b]indol-3-yl)propanamide]
178%	1010 nM	–	Cc1ccc2[nH]c3c(=O)n(CCC(=O)NCc4cccc(C(F)(F)F)c4)cnc3c2c1 [Compound 97]
122%	–	–	CC(C)c1ccc(CNC(=O)CCn2cnc3c([nH]c4ccc(F)cc43)c2=O)cc1 [Compound 118]
193%	–	–	Cc1ccc2[nH]c3c(=O)n(CCC(=O)NCCNc4ccc5c(c4)CCCC5)cnc3c2c1 [Compound 131, 3-(8-methyl-4-oxo-4,5-dihydro-3H-pyrimido[5,4-b]indol-3-yl)-N-(2-((5,6,7,8-tetrahydronaphthalen-2-yl)amino)ethyl)propanamide]
125%	–	–	Cc1ccc2[nH]c3c(=O)n(CCC(=O)NCc4cn5ccccc5n4)cnc3c2c1 [Compound 134, N-(imidazo[1,2-a]pyridin-2-ylmethyl)-3-(8-methyl-4-oxo-4,5-dihydro-3H-pyrimido[5,4-b]indol-3-yl)propanamide]
